Source: ChEMBL document CHEMBL5046270, “A Selective and Orally Bioavailable Quinoline-6-Carbonitrile-Based Inhibitor of CDK8/19 Mediator Kinase with Tumor-Enriched Pharmacokinetics” (J Med Chem, 2022)

Columns and labels:
[1] = Cmax in tumor of BALB/c mouse xenografted with mouse CT26 cells at 2.5 mg/kg, iv by LC-MS/MS analysis; format: ADME, organism-based, Neoplasm; parameters: route intravenous, dose 2.5 mg/kg
[2] = Elimination rate constant in plasma of BALB/c mouse xenografted with mouse CT26 cells at 2.5 mg/kg, iv by LC-MS/MS analysis; format: ADME, organism-based
[3] = target: T1, CDK8/Cyclin C (Homo sapiens) (UniProt P49336+P24863); assay: Binding affinity to kinase tracer 236 binding to His tagged recombinant human CDK8/cyclinC assessed as rate constant (kon) by TR FRET based assay; format: protein-complex assay
[4] = Half life in plasma of BALB/c mouse xenografted with mouse CT26 cells at 2.5 mg/kg, iv by LC-MS/MS analysis; format: ADME, organism-based
[5] = Oral bioavailability in plasma of BALB/c mouse xenografted with mouse CT26 cells at 100 mg/kg by LC-MS/MS; format: ADME, organism-based
[6] = AUC (0-24hrs) in tumor of BALB/c mouse xenografted with mouse CT26 cells at 2.5 mg/kg, iv by LC-MS/MS analysis; format: ADME, organism-based, Neoplasm; parameters: time < 24 hr, route intravenous, dose 2.5 mg/kg
[7] = Elimination rate constant in tumor of BALB/c mouse xenografted with mouse CT26 cells at 2.5 mg/kg, iv by LC-MS/MS analysis; format: ADME, organism-based, Neoplasm
[8] = target: T1, CDK8/Cyclin C (Homo sapiens); assay: Binding affinity to kinase tracer 236 binding to His tagged recombinant human CDK8/cyclinC assessed as mean residence time by TR FRET based assay; format: protein-complex assay
CDK8/Cyclin C = CDK8/Cyclin C (Homo sapiens, UniProt P49336); assay: Binding affinity to kinase tracer 236 binding to His tagged recombinant human CDK8/cyclinC assessed as dissociation constant by TR FRET based assay; format: protein-complex assay
Sequence of CDK8/Cyclin C (P49336 whole entry): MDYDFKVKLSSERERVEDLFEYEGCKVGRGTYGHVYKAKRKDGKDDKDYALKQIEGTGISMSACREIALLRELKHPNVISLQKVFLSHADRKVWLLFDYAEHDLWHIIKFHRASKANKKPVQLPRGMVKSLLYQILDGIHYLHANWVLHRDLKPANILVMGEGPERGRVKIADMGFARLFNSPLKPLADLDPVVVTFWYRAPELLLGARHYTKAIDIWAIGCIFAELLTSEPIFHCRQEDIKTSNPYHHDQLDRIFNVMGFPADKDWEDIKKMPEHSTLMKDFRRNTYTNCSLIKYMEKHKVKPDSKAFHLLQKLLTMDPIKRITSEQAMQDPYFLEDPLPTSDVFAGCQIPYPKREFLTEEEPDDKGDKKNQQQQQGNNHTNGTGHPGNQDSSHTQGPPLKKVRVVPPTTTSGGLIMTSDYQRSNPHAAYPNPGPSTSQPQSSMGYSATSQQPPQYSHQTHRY
Sequence of CDK8/Cyclin C (P24863 whole entry, further chain): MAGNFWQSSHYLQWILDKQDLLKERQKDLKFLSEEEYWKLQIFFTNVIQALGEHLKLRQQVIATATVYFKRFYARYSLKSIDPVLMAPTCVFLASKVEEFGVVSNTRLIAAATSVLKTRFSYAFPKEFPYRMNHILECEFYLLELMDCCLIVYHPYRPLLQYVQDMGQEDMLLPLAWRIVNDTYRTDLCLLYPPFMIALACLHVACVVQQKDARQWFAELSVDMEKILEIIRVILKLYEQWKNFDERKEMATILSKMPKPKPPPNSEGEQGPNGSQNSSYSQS

[9] = Inhibition of CDK8/CDK19 in MV4-11 cells and measured after 7 days by Spectra max iD5 microplate reader; format: cell-based, Homo sapiens
[10] = target: T2, Mitogen-activated protein kinase kinase kinase kinase 2 (Homo sapiens) (UniProt Q12851); assay: Inhibition of human MAP4K2 at 2 uM by competition binding assay relative to control; conditions: values are per cent of control
T2 sequence (whole entry): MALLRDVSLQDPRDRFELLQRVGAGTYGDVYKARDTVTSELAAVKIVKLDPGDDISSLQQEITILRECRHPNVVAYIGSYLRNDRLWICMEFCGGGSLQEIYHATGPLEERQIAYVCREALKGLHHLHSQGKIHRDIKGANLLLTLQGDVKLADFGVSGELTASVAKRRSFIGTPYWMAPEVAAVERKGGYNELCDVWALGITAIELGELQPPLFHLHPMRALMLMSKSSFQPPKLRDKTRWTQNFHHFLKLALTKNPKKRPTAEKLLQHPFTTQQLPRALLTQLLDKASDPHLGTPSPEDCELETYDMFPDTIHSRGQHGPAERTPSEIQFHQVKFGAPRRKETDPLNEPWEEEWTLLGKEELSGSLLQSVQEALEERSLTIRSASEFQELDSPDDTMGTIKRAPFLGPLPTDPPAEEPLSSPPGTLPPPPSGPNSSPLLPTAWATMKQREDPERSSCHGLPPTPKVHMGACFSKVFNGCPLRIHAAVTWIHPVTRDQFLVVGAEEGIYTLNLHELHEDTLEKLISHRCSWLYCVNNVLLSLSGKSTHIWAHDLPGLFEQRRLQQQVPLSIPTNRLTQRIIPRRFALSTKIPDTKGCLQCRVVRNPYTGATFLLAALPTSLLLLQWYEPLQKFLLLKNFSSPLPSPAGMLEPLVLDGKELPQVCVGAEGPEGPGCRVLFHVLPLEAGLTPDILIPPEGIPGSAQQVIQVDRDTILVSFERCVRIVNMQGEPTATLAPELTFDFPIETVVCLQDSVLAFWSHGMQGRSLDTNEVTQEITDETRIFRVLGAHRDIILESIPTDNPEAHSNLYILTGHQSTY

[11] = Drug accumulation in lung of BALB/c mouse bearing CT26 tumor model at 100 mg/kg, po for 7 days by LC-MS/MS analysis; format: ADME, organism-based; conditions: in vivo, 168 h, time 7 day
[12] = Tmax in tumor of BALB/c mouse xenografted with mouse CT26 cells at 2.5 mg/kg, iv by LC-MS/MS analysis; format: ADME, organism-based, Neoplasm
[13] = target: T3, Myosin-IIIb (Homo sapiens) (UniProt Q8WXR4); assay: Inhibition of human MYO3B at 2 uM by competition binding assay relative to control; conditions: values are per cent of control
T3 sequence (whole entry): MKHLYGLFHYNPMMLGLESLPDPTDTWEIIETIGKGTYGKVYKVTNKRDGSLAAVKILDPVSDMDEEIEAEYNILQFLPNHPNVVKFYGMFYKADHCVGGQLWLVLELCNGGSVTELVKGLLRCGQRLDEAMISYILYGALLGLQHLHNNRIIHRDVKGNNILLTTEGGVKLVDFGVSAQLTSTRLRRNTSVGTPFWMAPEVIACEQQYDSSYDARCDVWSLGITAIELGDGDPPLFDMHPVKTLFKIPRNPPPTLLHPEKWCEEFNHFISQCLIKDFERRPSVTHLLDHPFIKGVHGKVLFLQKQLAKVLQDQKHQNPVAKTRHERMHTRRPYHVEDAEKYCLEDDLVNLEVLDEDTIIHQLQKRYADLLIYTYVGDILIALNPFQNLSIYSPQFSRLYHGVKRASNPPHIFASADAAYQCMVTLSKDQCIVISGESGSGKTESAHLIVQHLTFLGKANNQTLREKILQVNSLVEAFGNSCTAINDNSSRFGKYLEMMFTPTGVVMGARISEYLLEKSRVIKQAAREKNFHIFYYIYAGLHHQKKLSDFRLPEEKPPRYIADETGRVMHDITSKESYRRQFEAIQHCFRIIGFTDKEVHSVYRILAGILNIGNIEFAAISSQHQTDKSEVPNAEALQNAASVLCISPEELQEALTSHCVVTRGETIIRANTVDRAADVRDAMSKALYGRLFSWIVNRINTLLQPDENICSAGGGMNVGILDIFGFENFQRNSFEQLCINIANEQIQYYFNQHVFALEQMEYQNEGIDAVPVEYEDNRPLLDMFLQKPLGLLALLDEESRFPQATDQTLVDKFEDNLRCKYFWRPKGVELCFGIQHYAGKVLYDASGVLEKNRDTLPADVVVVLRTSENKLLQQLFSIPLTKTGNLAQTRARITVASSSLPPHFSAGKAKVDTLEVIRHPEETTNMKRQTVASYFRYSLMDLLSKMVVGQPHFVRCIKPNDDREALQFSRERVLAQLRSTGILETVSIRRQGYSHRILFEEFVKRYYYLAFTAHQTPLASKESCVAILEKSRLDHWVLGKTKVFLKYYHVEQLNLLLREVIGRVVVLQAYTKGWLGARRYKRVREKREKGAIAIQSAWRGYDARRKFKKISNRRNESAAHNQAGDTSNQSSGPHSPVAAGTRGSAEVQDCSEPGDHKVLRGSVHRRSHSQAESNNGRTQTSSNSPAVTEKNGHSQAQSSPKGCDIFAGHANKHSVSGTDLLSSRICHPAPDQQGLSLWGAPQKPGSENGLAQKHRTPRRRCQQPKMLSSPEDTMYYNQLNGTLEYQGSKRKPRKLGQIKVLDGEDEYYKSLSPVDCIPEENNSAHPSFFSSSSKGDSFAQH

In the case of `CN1CCN(C(=O)c2ccc3cc(CCNc4ccnc5ccc(C#N)cc45)ccc3c2)CC1`, the Cmax [1] is reported as 488 ng/mL, the k el [2] is reported as 0.000258 s⁻¹ and the K [3] is reported as 8.78 10^6/M/s. The half-life [4] was 45 min, the bioavailability [5] was 16.5% and the AUC(0-t) at 24 h [6] was 6410 ng·h/mL. It also gave a k el [7] of 1.67e-05 s⁻¹, an MRT [8] of 13.6 min and a Kd (CDK8/Cyclin C) of 1.39 nM. The IC50 [9] was 108 nM, the residual binding, % of control [10] was 29% and the Drug uptake [11] was “Active”. For the same compound, the Tmax [12] was 34.8 min and the residual binding, % of control [13] was 31%.
